Like-named read-outs stand apart in the source and are kept apart here. One block for each compound: values may come before it.
How the values were obtained:
[1] = Metabolites in 24-hour urine of rats given Maillard reaction products orally (HPLC); settings: rat
Method: Then, 100 μl of acetonitrile/phosphate buffer (7/93) adjusted to pH 2.0 was injected into the HPLC apparatus through the injection microsyringe. The apparatus and the experimental conditions were the same as those described above.
The specification of the HPLC apparatus and experimental conditions were the same as described above.

male Wistar rats [2] = assay: Blood free-fatty acid level time course after 5-MPCA; format: in vivo, rat; settings: 50 mg/kg, 1, 2, 4 and 6 hours after administration
Method: Further, using four-week-old male Wistar rats, the following experiment was performed. A control group was administered with physiological saline. A test group was administered with a solution of 50 mg/kg of 5-methylpyrazine-2-carboxylic acid (5-MPCA) dissolved in physiological saline. Immediately before starting the administration and 1, 2, 4, and 6 hours after the administration, each 6 rats were decapitated and blood was collected from each rat. According to a conventional method, plasma was separated from each sample blood and blood levels of free-fatty acid (FFA) were determined using a kit for determining free-fatty acid level. […] That is, FIG. 10 is a diagram showing the effect of 5-methylpyrazinecarboxylic acid on the blood free-fatty acid level of the rats.

[3] = tested on: absorption of glucose in digestive tracts; settings: animal test; cited from earlier work
male Wistar rats [4] = tested on: male Wistar rats
male Wistar rats [5] = settings: oral, 10 mg/kg nicotinic acid alone
[6] = Water solubility as described for addition to liquid foods; format: physicochemical
Method: The case where the above-mentioned group A to C compounds are added to any liquid foods and beverages (coffee, refreshing beverages, etc.) or hydrophilic solutions (for example, aqueous solutions and alcohol solutions) is described hereinbelow. […] Since the group B compounds are water-soluble but have strong volatility, it is recommended that simple dissolution thereof may be performed after concentration of a coffee extract and freeze-drying, if any. […] Since the group C compounds are water-soluble but have weak volatility, they may be simply dissolved similarly to the group B compounds.

insulin sensitivity = settings: rat, in vivo; cited from earlier work

Compound: O=C(/C=C/c1ccc(O)c(O)c1)O[C@@H]1C[C@](O)(C(=O)O)C[C@@H](O)[C@H]1O [Chlorogenic acid, chlorogenic acid]
- speed of absorption of glucose in digestive tracts [3]: reducing a speed of absorption of glucose in digestive tracts

Compound: O=C(O)c1cccnc1 [nicotinic acid]
- time after which rebound phenomenon was observed (male Wistar rats [4]; 10 to 20 mg/kg): 2 h
- time after which rebound phenomenon was observed (male Wistar rats [4]; oral, 5 mg/kg): 1 h
- time after which rebound phenomenon was observed (male Wistar rats [4]; oral, 10 mg/kg): 2 h
- time after which rebound phenomenon was observed (male Wistar rats [4]; oral, 50 mg/kg): 4 h
- blood free-fatty acid level after 30 minutes of the administration (male Wistar rats [4]; oral, any dose of from 5 mg/kg to 50 mg/kg): ≤ 0.5 mEq/l
- rebound phenomenon after 1 hour of the administration (male Wistar rats [5]): present in a mixed manner
- rebound phenomenon after 2 hours of the administration (male Wistar rats [5]): all the animals showed the rebound phenomenon

Compound: O=Cc1ccc[nH]1 [pyrrole-2-aldehyde]
- recovery in urine (in words) ([1]; 50 mg/kg oral, urine collected after 24 hours): almost quantitative

Compound: chlorogenic lactone
- insulin sensitivity (insulin sensitivity): Enhancement of insulin sensitivity

Other lines, results leading:

- conversion by metabolism in liver ([1]; 50 mg/kg, 24-hour urine): converted into a group C compound
Compound: Cc1cnc(C)cn1 [2,5-dimethylpyrazine]

- rebound phenomenon of blood free-fatty acid level (male Wistar rats [2]): no rebound phenomenon
Compound: Cc1cnc(C(=O)O)cn1 [5-MPCA, 5-methyl-pyrazine-2-carboxylic acid]

- water solubility [6]: hardly water-soluble
Compound: Cc1nc(C)c(C)nc1C [tetramethylpyrazine]
